# Entries after “also recorded” stand apart in the source; their conditions may differ.
# Assays:
# [1] = tested on: flies expressing Htt-Exon-1Q93 in all neurons; assay: Climbing assay in a Drosophila model of HD; type: in vivo
# Method: (A) Expression of the htt proteins in transgenic flies is driven by the bipartite expression system upstream activator sequence (UAS)-GAL4 (yeast transcriptional activator). Stocks w; P(w^+mC; w+; elav−GAL4/CyO) and w; P(w+mC=UAS-Q93httexon1) were crossed in order to obtain flies expressing mutant htt fragments in all neurons.
# (B, C) Flies expressing Htt-Exon-1Q93 were fed with khayanthone (100 μM, 250 μM) or DMSO supplemented food. Effects of khayanthone on flies' motor ability were measured with the climbing assay. For this purpose flies were placed in a vial, then the height half of them were able to climb from the bottom within 60 sec was determined. In addition the time was measured which half of them needed to climb up 6 cm. […] Each curve represents a population of ˜40 flies. Error bars represent the SD of 5 repeats on each measuring point.
# Flies were mated at 25° C. in vials containing standard food supplemented with different concentrations of the compound tested. Adults were transferred to vials containing fresh food supplemented with different concentrations of khayanthone (100 μM, 250 μM, and DMSO control) every 3 days after eclosion.
# Effects of khayanthone on the flies' motor ability were measured with the climbing assay. For this purpose flies were placed in a vial, then the height, which half of them were able to climb from the bottom within 60 sec, was determined. In addition, the time was measured which half of them needed to climb up 6 cm. The assays were repeated five times on each population sample.
# [2] = tested on: HSP90; assay: Western blot of heat shock protein expression in SH-SY5Y cells; type: cell-based; settings: SH-SY5Y cell line, increasing concentration
# Method: (§1) Utilizing Western-blot analysis concentration-dependent effects of khayanthone on protein expression of HSP40, HSP70, and HSP90 were detected. Immuno detection was performed using HSP specific monoclonal antibodies, respectively.
# (§2) We examined effects of khayanthone on the expression of heat shock proteins, preferentially HSP40, HSP70 and HSP90, because of their impacts in neurodegenerative disease and cancer. Heat shock protein expression was determined in neuronal cells (SH-SY5Y cell line) by western blot analysis.
# [3] = tested on: HSP70; assay: as above; type: cell-based; settings: SH-SY5Y cell line, increasing concentration
# Method: as §1, §2
# [4] = tested on: HSP40; assay: as above; type: cell-based; settings: SH-SY5Y cell line, increasing concentration
# Method: as §1, §2
# [5] = tested on: proteasome (chymotrypsin activity); assay: Proteasome activity, hydrolysis of Suc-LLVY-AMC in CHO-AA8/Tet-Off cells; type: cell-based; settings: 24 h
# Method: The concentration-dependent effect of khayanthone, 17-AAG, Gedunin, and Lactacystin on proteasome activity was tested using a non-recombinant CHO Tet-Off cell line. Cells were incubated with the given compounds for 24 h. Subsequently, proteasome activities were measured by a fluoroscan according to the degradation rate of a fluorogenic substrate (Suc-LLVY-AMC). In correlation to DMSO treated controls khayanthone led to an increase of proteasome activity about 40-50% in CHO-AA8/Tet-Off cells.
# To confirm this we examined the chymotrypsin activity of the proteasome under the influence of khayanthone and compared data with known substances influencing the proteasomes' activity (gedunin, lactacystin, 17-AAG) (FIG. 4). Adminstration of the selected substances was performed for 24 h, and subsequently chymotrypsin activity of the UPS was determined by measuring the hydrolysis of a fluorogenic reporter (Suc-LLVY-AMC, Biomol).
# [6] = tested on: CHO-AA8/Q68-Q68 cells; assay: Propidium iodide exclusion assay (viability, cell number) following the FRET assay
# Method: CHO-AA8/Q68-Q68, CHO-AA8/Q17-Q17 and CHO-AA8 cells were seeded in 96 well plates. After attachment of the cells, the medium was exchanged for Ham's F 12 medium containing 10% doxicycline free FBS and 2% DMSO supplemented with compounds. After 48 h the fluorescence intensities of cells were measured using a fluorescence plate reader (Fluoroscan Ascent, Thermo Scietific) and filtersets for CFP (ex 444 nm, em 485 nm), YFP(ex 485 nm, em 538 nm) and FRET (ex 444 nm, em 538 nm). After correction of background fluorescence (subtraction of CHO-AA8 cell fluorescence intensities) the FRET signal was determined using the method: FA=(FRET-a*YFP)/CFP with a=0.11 (Zal u. Gascoigne 2004, Zal et al. 2002). In following, the viability of cells was measured using a propidium iodide exclusion assay (Sattler et al. 1997). PI was added to the cells at final concentration of 0.15 mg/ml. After 15 minutes the PI fluorescence intensity was measured (ex 530 nm, em 620 nm). The cells were then lysed with 0.5% Triton X-100 (TX100) and the PI fluorescence intensity was measured again. Viability of cells was calculated as viability=1−(PIbefore TX100/PIafter TX100).
# (§3) The FRET-measurement was performed 48 h later.
# [7] = target: T1, mutant huntingtin aggregates (HDex1Q68 fused to ECFP/EYFP) (Homo sapiens, UniProt P42858, INS38QQQQQQQQQQQQQQQQQQQQQQQQQQQQQQQQQQQQQQQQQQQQQQQ); assay: Cellular FRET aggregation assay in stable Tet-off CHO-AA8/Q68-Q68 cells; type: cell-based
# [8] = target: T1, mutant huntingtin aggregates (HDex1Q68 fused to ECFP/EYFP); assay: as above; type: cell-based; settings: 48 h, 2% DMSO
# Method: To determine the potential of possibly inhibiting substances the inventors performed dose response assays at concentrations ranging from 1, to 100 μM.
# Screening was performed in 96-well plates (greiner bio-one) containing 1×10^4 cells/well of the stably inducible tet off cell lines htt-mut (six-fold) and CHO-AA8 line (three fold) for background control. Simultaneously, each compound was checked for its potential autofluorescence.
# Two stable inducible CHO Tet off cell lines were constructed expressing simultaneously wildtype (CHO-AA8/Q17-Q17) or mutant (CHO-AA8/Q68-Q68) huntingtin fragments fused to ECFP or EYFP (FIG. 1B) after withdrawal of doxicycline (dox). Basal and induced expression levels of huntingtin fusion proteins were examined by Western blot analysis at different time intervals (4, 24, 48, and 72 hours). […] For the screening approach stable inducible huntingtin expressing cell lines were seeded in 96-well plates and the fluorescence intensities were measured with a fluorescence plate reader.
# The test compounds were mixed in a fresh doxicycline-free medium with 2% DMSO and added to the Tet off cell lines two to three hours after seeding and attachment of the cells.
# as §3
# Subsequently, a second screening round was performed at concentration range 1, 3, and 10 μM, respectively.
# [9] = after day 18, food with 100 μM, 250 μM
# T1 sequence (P42858 1-88, stated change not applied): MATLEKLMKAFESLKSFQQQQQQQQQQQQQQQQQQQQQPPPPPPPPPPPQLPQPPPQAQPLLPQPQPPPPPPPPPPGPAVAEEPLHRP
compound,measurement,setting,value
"CC(=O)O[C@H]1C[C@@H](OC(C)=O)C(C)(C)C2C[C@@H](OC(C)=O)[C@]3(C)C(CC[C@@]4(C)[C@H]([C@H]5CCOC5)C(=O)[C@H]5O[C@]543)[C@]21C (stereo partly shown) [S1, khayanthone]",climbing distance in 60 sec (height half of the flies climb),[1]; [9],~50 % of the initial distance
same,time half of the flies need for a 6 cm distance,[1]; [9],2.3 times of the initial time
same,difference in climbing between treated and untreated flies,[1]; until day 18,no detectable difference
same,motor ability / mobility compared to DMSO treated flies (in words),"[1]; with increasing age, food with 100 μM, 250 μM",improves significantly motor deficits; also recorded: maintain an improved mobility
same,HSP90 protein expression,[2],decreased expression; also recorded: slight decrease
same,HSP70 protein expression,[3],decreased expression; also recorded: slight decrease
same,HSP40 protein expression,[4],decreased expression; also recorded: slight decrease
same,highest chymotrypsin activity,[5]; 1 μM,about 40%
same,chymotrypsin activities (decline with increasing concentrations),"[5]; 3, 10 μM",~10%
same,increase of proteasome activity,"[5]; CHO-AA8/Tet-Off cells, in correlation to DMSO treated controls",40-50%
same,Cell number (effect in words),[6],unaffected
same,Number of mutant huntingtin aggregates (fluorescence microscopy images),[7],decrease with increasing compound concentration
same,FRET-signal (effect in words),[8],decreases

# — patent US20100298280A1, “Compounds for the Modulation of Huntingtin Aggregation, Methods and Means for Identifying Such Compounds” (priority 2007, published 2010)
